Measurements taken from article PMC10952433, “A Chemoenzymatic Approach To Produce a Cyclic Analogue of the Analgesic Drug MVIIA (Ziconotide)” (Angewandte Chemie (International Ed. in English), 2023).

Columns and labels:
[1] = target: T1, CaV2.2 (Homo sapiens, UniProt Q00975)
[2] = target: T1, CaV2.2; experiment: cell-based
[3] = in vitro; conditions: simulated intestinal fluid, pH 6.8

T1 sequence (Q00975 whole entry, looked up): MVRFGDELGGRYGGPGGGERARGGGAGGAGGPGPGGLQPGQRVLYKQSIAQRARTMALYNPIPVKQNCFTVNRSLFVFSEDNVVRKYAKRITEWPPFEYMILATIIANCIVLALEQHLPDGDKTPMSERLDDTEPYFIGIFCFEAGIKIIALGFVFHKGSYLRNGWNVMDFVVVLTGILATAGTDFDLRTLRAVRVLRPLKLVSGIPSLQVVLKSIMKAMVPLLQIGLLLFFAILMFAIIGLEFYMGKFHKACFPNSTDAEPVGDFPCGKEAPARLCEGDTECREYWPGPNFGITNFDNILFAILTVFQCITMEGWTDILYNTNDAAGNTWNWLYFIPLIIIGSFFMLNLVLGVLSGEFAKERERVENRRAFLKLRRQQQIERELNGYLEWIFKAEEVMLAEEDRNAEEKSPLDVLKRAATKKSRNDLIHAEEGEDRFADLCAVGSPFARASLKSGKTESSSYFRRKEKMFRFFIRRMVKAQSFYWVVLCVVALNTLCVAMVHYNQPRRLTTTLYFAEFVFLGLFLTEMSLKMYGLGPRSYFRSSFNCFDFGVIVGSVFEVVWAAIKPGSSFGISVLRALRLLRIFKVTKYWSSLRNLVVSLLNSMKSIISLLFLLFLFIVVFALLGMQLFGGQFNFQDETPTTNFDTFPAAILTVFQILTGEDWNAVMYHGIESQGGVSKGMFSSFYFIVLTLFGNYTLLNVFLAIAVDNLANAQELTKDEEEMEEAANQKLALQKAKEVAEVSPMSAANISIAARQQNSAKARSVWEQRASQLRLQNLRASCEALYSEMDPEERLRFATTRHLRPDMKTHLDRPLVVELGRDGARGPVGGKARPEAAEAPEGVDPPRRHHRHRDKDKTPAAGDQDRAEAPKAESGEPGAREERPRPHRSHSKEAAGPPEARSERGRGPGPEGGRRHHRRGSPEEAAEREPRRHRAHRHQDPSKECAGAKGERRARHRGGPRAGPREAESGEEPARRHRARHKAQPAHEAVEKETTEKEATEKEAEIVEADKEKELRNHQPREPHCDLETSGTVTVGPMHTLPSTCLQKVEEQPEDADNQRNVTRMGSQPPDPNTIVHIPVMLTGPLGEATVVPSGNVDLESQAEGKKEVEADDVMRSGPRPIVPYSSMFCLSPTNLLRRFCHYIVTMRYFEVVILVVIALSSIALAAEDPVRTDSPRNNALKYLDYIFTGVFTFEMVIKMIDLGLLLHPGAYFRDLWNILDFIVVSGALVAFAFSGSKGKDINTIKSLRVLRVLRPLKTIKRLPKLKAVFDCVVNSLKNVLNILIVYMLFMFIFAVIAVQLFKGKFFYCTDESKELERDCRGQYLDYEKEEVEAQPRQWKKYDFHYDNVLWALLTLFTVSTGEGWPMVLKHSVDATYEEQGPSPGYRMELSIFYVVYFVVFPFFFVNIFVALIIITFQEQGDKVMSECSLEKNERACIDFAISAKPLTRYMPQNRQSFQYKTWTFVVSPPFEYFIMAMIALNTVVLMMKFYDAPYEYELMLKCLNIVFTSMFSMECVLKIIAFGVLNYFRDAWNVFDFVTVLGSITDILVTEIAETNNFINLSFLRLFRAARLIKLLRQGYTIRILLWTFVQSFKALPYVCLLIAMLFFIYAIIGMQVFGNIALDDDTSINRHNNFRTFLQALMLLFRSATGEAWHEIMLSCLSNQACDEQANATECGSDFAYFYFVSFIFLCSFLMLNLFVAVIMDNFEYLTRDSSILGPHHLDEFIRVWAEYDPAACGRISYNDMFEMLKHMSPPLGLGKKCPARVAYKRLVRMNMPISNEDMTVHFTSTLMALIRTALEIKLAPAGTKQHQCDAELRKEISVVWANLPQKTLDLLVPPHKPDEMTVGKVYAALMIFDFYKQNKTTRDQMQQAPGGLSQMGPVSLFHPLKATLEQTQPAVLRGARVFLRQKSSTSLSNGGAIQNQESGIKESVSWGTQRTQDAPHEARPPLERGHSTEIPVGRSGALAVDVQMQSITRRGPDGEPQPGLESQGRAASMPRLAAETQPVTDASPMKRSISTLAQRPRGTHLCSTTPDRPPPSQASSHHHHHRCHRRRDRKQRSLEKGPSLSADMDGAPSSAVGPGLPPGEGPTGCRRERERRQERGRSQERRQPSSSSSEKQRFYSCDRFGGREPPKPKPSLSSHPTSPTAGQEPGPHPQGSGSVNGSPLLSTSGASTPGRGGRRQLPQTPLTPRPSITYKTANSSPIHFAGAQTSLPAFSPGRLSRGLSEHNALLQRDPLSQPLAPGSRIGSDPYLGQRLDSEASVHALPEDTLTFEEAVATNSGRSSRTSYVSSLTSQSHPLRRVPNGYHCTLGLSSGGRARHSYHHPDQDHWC

Structure (SMILES)	LogEC50 [1]	EC50 [2]	IC50 [2]	half-life [3]	remaining at 1 h [3]
CCCC[C@@H]1NC(=O)[C@H](CC(C)C)NC(=O)[C@H](CCCNC(=N)N)NC(=O)[C@H](CO)NC(=O)[C@@H]2CSSC[C@@H]3NC(=O)[C@H](CO)NC(=O)CNC(=O)[C@H]([C@@H](C)O)NC(=O)[C@@H]4CSSC[C@H](NC(=O)[C@H](C)NC(=O)[C@H](C)NC(=O)CNC(=O)CNC(=O)[C@H](CC(N)=O)NC(=O)CNC(=O)CNC(=O)[C@H](C)NC(=O)[C@H](C)NC(=O)[C@H](CSSC[C@H](NC(=O)[C@H](CC(=O)O)NC(=O)[C@H](Cc5ccc(O)cc5)NC1=O)C(=O)N4)NC(=O)[C@H](CCCCN)NC(=O)CNC(=O)[C@H](CO)NC(=O)[C@H](CCCNC(=N)N)NC3=O)C(=O)N[C@@H](CCCCN)C(=O)NCC(=O)N[C@@H](CCCCN)C(=O)NCC(=O)N[C@@H](C)C(=O)N[C@@H](CCCCN)C(=O)N2 [cM-9]	-6.4	307 nM	306.6 ± 1.5 nM		
CCCC[C@@H]1NC(=O)[C@H](CC(C)C)NC(=O)[C@H](CCCNC(=N)N)NC(=O)[C@H](CO)NC(=O)[C@@H]2CSSC[C@@H]3NC(=O)[C@H](CO)NC(=O)CNC(=O)[C@H]([C@@H](C)O)NC(=O)[C@H](CSSC[C@H](N)C(=O)N[C@@H](CCCCN)C(=O)NCC(=O)N[C@@H](CCCCN)C(=O)NCC(=O)N[C@@H](C)C(=O)N[C@@H](CCCCN)C(=O)N2)NC(=O)[C@H](CSSC[C@@H](C(N)=O)NC(=O)[C@H](CCCCN)NC(=O)CNC(=O)[C@H](CO)NC(=O)[C@H](CCCNC(=N)N)NC3=O)NC(=O)[C@H](CC(=O)O)NC(=O)[C@H](Cc2ccc(O)cc2)NC1=O [M-2]	-9.9	0.1 nM	0.1 nM		
CCCC[C@@H]1NC(=O)[C@H](CC(C)C)NC(=O)[C@H](CCCNC(=N)N)NC(=O)[C@H](CO)NC(=O)[C@@H]2CSSC[C@@H]3NC(=O)[C@H](CO)NC(=O)CNC(=O)[C@H]([C@@H](C)O)NC(=O)[C@@H]4CSSC[C@H](NC(=O)[C@H](C)NC(=O)CNC(=O)CNC(=O)[C@H](CC(N)=O)NC(=O)CNC(=O)[C@H](C)NC(=O)[C@H](CSSC[C@H](NC(=O)[C@H](CC(=O)O)NC(=O)[C@H](Cc5ccc(O)cc5)NC1=O)C(=O)N4)NC(=O)[C@H](CCCCN)NC(=O)CNC(=O)[C@H](CO)NC(=O)[C@H](CCCNC(=N)N)NC3=O)C(=O)N[C@@H](CCCCN)C(=O)NCC(=O)N[C@@H](CCCCN)C(=O)NCC(=O)N[C@@H](C)C(=O)N[C@@H](CCCCN)C(=O)N2 [cM-6]	-7.4	43.2 nM	43.2 ± 1.4 nM		
CCCC[C@@H]1NC(=O)[C@H](CC(C)C)NC(=O)[C@H](CCCNC(=N)N)NC(=O)[C@H](CO)NC(=O)[C@@H]2CSSC[C@@H]3NC(=O)[C@H](CO)NC(=O)CNC(=O)[C@H]([C@@H](C)O)NC(=O)[C@@H]4CSSC[C@H](NC(=O)[C@H](C)NC(=O)[C@H](C)NC(=O)CNC(=O)CNC(=O)[C@H](CC(N)=O)NC(=O)CNC(=O)[C@H](C)NC(=O)[C@H](CSSC[C@H](NC(=O)[C@H](CC(=O)O)NC(=O)[C@H](Cc5ccc(O)cc5)NC1=O)C(=O)N4)NC(=O)[C@H](CCCCN)NC(=O)CNC(=O)[C@H](CO)NC(=O)[C@H](CCCNC(=N)N)NC3=O)C(=O)N[C@@H](CCCCN)C(=O)NCC(=O)N[C@@H](CCCCN)C(=O)NCC(=O)N[C@@H](C)C(=O)N[C@@H](CCCCN)C(=O)N2 [cM-7]	-7.8	13.5 nM	13.5 ± 1.2 nM	43 min	~38%
CCCC[C@@H]1NC(=O)[C@H](CC(C)C)NC(=O)[C@H](CCCNC(=N)N)NC(=O)[C@H](CO)NC(=O)[C@@H]2CSSC[C@@H]3NC(=O)[C@H](CO)NC(=O)CNC(=O)[C@H]([C@@H](C)O)NC(=O)[C@@H]4CSSC[C@H](NC(=O)[C@H](C)NC(=O)[C@H](C)NC(=O)CNC(=O)CNC(=O)[C@H](CC(N)=O)NC(=O)CNC(=O)CNC(=O)[C@H](C)NC(=O)[C@H](CSSC[C@H](NC(=O)[C@H](CC(=O)O)NC(=O)[C@H](Cc5ccc(O)cc5)NC1=O)C(=O)N4)NC(=O)[C@H](CCCCN)NC(=O)CNC(=O)[C@H](CO)NC(=O)[C@H](CCCNC(=N)N)NC3=O)C(=O)N[C@@H](CCCCN)C(=O)NCC(=O)N[C@@H](CCCCN)C(=O)NCC(=O)N[C@@H](C)C(=O)N[C@@H](CCCCN)C(=O)N2 [cM-8]	-7.6	21.8 nM	21.8 ± 1.2 nM		
CSCC[C@@H]1NC(=O)[C@H](CC(C)C)NC(=O)[C@H](CCCNC(=N)N)NC(=O)[C@H](CO)NC(=O)[C@@H]2CSSC[C@@H]3NC(=O)[C@H](CO)NC(=O)CNC(=O)[C@H]([C@@H](C)O)NC(=O)[C@H](CSSC[C@H](N)C(=O)N[C@@H](CCCCN)C(=O)NCC(=O)N[C@@H](CCCCN)C(=O)NCC(=O)N[C@@H](C)C(=O)N[C@@H](CCCCN)C(=O)N2)NC(=O)[C@H](CSSC[C@@H](C(=O)O)NC(=O)[C@H](CCCCN)NC(=O)CNC(=O)[C@H](CO)NC(=O)[C@H](CCCNC(=N)N)NC3=O)NC(=O)[C@H](CC(=O)O)NC(=O)[C@H](Cc2ccc(O)cc2)NC1=O [M-3]	-8.8	1.7 nM	1.7 ± 1.2 nM		
